Earlier results, collected in US20080124279A1, “Colonic delivery using Zn/pectin beads with a Eudragit coating” (priority 2006, published 2008).
Like-named read-outs stand apart in the source and are kept apart here.

Experiments:
[1] = tested on: FEZ-1
[2] = biological target: L-1(wt) (Stenotrophomonas maltophilia, UniProt P52700)
[3] = biological target: IMP-1 (Serratia marcescens, UniProt P52699)
[4] = biological target: VIM-2 (Escherichia coli, UniProt Q5U7L7)

Chain of L-1(wt) (P52700 34-290): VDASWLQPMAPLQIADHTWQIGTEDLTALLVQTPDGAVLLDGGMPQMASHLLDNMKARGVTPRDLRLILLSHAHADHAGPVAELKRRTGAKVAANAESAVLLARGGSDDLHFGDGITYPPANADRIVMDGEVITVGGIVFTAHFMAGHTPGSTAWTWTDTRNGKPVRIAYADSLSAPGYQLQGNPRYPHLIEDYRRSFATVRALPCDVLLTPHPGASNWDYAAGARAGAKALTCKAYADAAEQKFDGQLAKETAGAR
Chain of IMP-1 (P52699 19-246 limits assumed): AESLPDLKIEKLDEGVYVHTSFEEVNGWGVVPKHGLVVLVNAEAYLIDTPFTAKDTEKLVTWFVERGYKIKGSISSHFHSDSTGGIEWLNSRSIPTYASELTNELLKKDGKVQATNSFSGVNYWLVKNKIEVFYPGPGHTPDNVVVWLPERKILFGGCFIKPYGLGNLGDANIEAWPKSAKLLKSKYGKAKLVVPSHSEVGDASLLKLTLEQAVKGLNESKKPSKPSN

SMILES | Kcat [1] [s⁻¹] | Km [1] [µM] | Kcat [2] [s⁻¹] | Km [2] [µM] | Kcat [3] [s⁻¹] | Km [3] [µM] | Km [4] [µM] | Kcat [4] [s⁻¹] | Km ([4]; read-out: Km) [µM] | Km ([3]; read-out: Km) [µM]
CC1(C)S[C@@H]2[C@H](NC(=O)[C@H](N)c3ccccc3)C(=O)N2[C@H]1C(=O)O [Ampicillin] | >5.5 | > 5000 | 520 | 55 | 950 | 200 | 90 |  |  | 
CC1(C)S[C@@H]2[C@H](NC(=O)[C@H](NC(=O)N3CCNC3=O)c3ccccc3)C(=O)N2[C@H]1C(=O)O [Azlocillin] |  |  |  |  |  |  | 200 | 200 |  | 
C[C@H]1[C@H](NC(=O)/C(=N\OC(C)(C)C(=O)O)c2csc(N)n2)C(=O)N1S(=O)(=O)O [Aztreonam] |  |  |  |  | >0.01 | > 1000 | > 1000 | <0.01 |  | 
CC1(C)S[C@@H]2[C@H](NC(=O)Cc3ccccc3)C(=O)N2[C@H]1C(=O)O [Benzylpenicillin] | 70 | 590 | 600 | 38 | 320 | 520 | 49 | 56 |  | 
C[C@@H](O)[C@H]1C(=O)N2C(C(=O)[O-])=C(SC3Cn4cnc[n+]4C3)[C@H](C)[C@H]12 (stereo partly drawn) [Biapenem] | 70 | > 1000 | 134 | 32 | 160 | 28 | 15 | 8.5 |  | 
CC1(C)S[C@@H]2[C@H](NC(=O)C(C(=O)O)c3ccccc3)C(=O)N2[C@H]1C(=O)O (stereo partly drawn) [Cabenicillin] | 35 | 1600 |  |  |  |  |  | 185 | 205 | 
NC(=O)OC[C@@H]1[C@H](NC(=O)/C(=N\OCC(=O)O)c2csc(N)n2)C(=O)N1S(=O)(=O)O [Carumonam] |  |  |  |  | >0.01 | > 1000 |  |  |  | 
CO/N=C(\C(=O)N[C@@H]1C(=O)N2C(C(=O)[O-])=C(C[N+]3(C)CCCC3)CS[C@H]12)c1csc(N)n1 [Cefepim] | >6 | > 1000 |  |  | 7 |  |  | >40 | > 400 | 11
CO/N=C(\C(=O)N[C@@H]1C(=O)N2C(C(=O)O)=C(COC(C)=O)CS[C@H]12)c1csc(N)n1 [Cefotaxim] | 165 | 70 | 270 | 10 | 1.3 |  |  | 70 | 12 | 4
CO[C@@]1(NC(=O)Cc2cccs2)C(=O)N2C(C(=O)O)=C(COC(N)=O)CS[C@@H]21 [Cefoxitin] |  |  | 1 | 3 |  |  | 13 | 15 |  | 
CO/N=C(\C(=O)N[C@@H]1C(=O)N2C(C(=O)[O-])=C(C[n+]3cccc4c3CCC4)CS[C@H]12)c1csc(N)n1 [Cefpirom] |  |  |  |  | 9 |  |  | 180 | 180 | 14
CC(C)(O/N=C(\C(=O)N[C@@H]1C(=O)N2C(C(=O)[O-])=C(C[n+]3ccccc3)CS[C@H]12)c1csc(N)n1)C(=O)O [Ceftazidin] |  |  |  |  | 8 |  |  | 3.6 | 72 | 44
CO/N=C(\C(=O)N[C@@H]1C(=O)N2C(C(=O)O)=C(COC(N)=O)CS[C@H]12)c1ccco1 [Cefuroxin] |  |  |  |  |  |  |  | 8 | 20 | 
O=C(Cc1cccs1)N[C@@H]1C(=O)N2C(C(=O)[O-])=C(C[n+]3ccccc3)CS[C@H]12 [Cephaloridin] | 16 | 1000 |  |  | 53 |  |  | 140 | 50 | 22
CC(=O)OCC1=C(C(=O)O)N2C(=O)[C@@H](NC(=O)Cc3cccs3)[C@H]2SC1 [Cephalothin] |  |  | 82 | 8.9 | 48 |  | 11 | 130 |  | 
O=C(O)[C@H]1/C(=C/CO)O[C@@H]2CC(=O)N21 [Clavulanic Acid] | <0.01 | > 1000 | 11 | 22 |  |  |  |  |  | 
C[C@@H](O)[C@H]1C(=O)N2C(C(=O)O)=C(SCCN=CN)C[C@H]12 [Imipenem] |  |  |  | 57 |  | 39 | 9 |  |  | 
C[C@@H](O)[C@H]1C(=O)N2C(C(=O)O)=C(S[C@@H]3CN[C@H](C(=O)N(C)C)C3)[C@H](C)[C@H]12 [Meropenem] |  |  | 157 | 15 |  |  | 2 | 5 |  | 
CC1(C)S[C@@H]2[C@H](NC(=O)[C@H](NC(=O)N3CCN(S(C)(=O)=O)C3=O)c3ccccc3)C(=O)N2[C@H]1C(=O)O [Mezlocillin] |  |  |  |  |  |  | 125 | 200 |  | 
CO[C@@]1(NC(=O)C(C(=O)O)c2ccc(O)cc2)C(=O)N2C(C(=O)O)=C(CSc3nnnn3C)CO[C@@H]21 (stereo partly drawn) [Moxalactam] | 3 | 18 |  |  |  |  | 55 | 90 |  | 
O=C(Cc1cccs1)N[C@@H]1C(=O)N2C(C(=O)O)=C(/C=C/c3ccc([N+](=O)[O-])cc3[N+](=O)[O-])CS[C@H]12 [Nitrocefin] | 90 | 100 | 41 | 4 | 63 |  | 18 | 770 |  | 
CCN1CCN(C(=O)N[C@@H](C(=O)N[C@@H]2C(=O)N3[C@@H]2SC(C)(C)[C@@H]3C(=O)O)c2ccccc2)C(=O)C1=O [Pipericillin] | 50 | 4200 |  |  |  |  |  | 300 | 125 | 
CC1(C)[C@H](C(=O)O)N2C(=O)C[C@H]2S1(=O)=O [Sulbactam] |  |  |  |  |  |  |  | 23 | 320 | 
C[C@]1(Cn2ccnn2)[C@H](C(=O)O)N2C(=O)C[C@H]2S1(=O)=O [Tazobactam] | 40 | 700 |  |  |  |  | 875 | 28 |  | 
CC1(C)S[C@@H]2[C@H](NC(=O)[C@H](C(=O)O)c3ccsc3)C(=O)N2[C@H]1C(=O)O [Ticarcillin] | >65 | > 5000 |  |  | 1.1 | 740 | 125 | 180 |  | 
CO[C@@]1(NC(=O)C(C(=O)O)c2ccsc2)C(=O)N2[C@@H](C(=O)O)C(C)(C)S[C@@H]21 (stereo partly drawn) [Timocillin] |  |  |  |  |  |  |  | 7.7 | 390 | > 2000
